Source: patent publication US20210284615A1, “VORTIOXETINE ANALOGUE AND USE AND PREPARATION THEREOF” (priority 2016, published 2021)
“And” between values parts separate entries of the source, which are not always exact repeats. Equal entries are not always repeated. Where two headings read alike, the source gives them in different places.

Columns and labels:
[1] = Determination of lipid-water partition coefficient; assay type: physicochemical
Description: Vortioxetine hydrobromide (6 mg) and Compound 3 (6 mg) were dissolved respectively in a mixed solution composed of a pH 7.4 of phosphate buffer (3 ml) and n-octyl alcohol (3 ml), and the mixture was allowed to stand for 3 hours at 37° C. The concentration of each compound in water phase and oil phase was respectively determined, and calculated by logP=[…]log (Coil/Cwater). The results are as follows: logPvortioxetine=2.1; logPcompound 3=2.7.

SLC6A4 = molecular target: T1, SLC6A4 (Homo sapiens, UniProt P31645); experiment: [3H]5-hydroxytryptamine (5-HT) reuptake inhibition in CHO cells transfected with pcDNA3.1-SLC6A4-His; assay type: cell-based; conditions: 25 nM [3H]5-hydroxytryptamine, 30 min
T1 construct: host or cells: CHO cells (Chinese hamster ovary, Cat #CCL-61), transient transfection with FuGENE HD
Description: SLC6A4 gene from plasmid Pcmv6-XL4-SLC6A4 (Origene, Cat #SC119478) was amplified by PCR (polymerase chain reaction), and a HIS tag was added to the C terminal, and then inserted into pcDNA3.1 (−) vector at 5′EcoR1 and 31-lind111 restriction enzyme cutting sites to build pcDNA3.1-SLC6A4-His.
CHO cells in logarithmic growth period (Chinese hamster ovary cells, Institute of Cell Biology, Chinese Academy of Sciences, Cat #CCL-61) were collected and counted. The cells were resuspended in F-12 culture media (Gibco, Cat #11330-032) and inoculated on a 96-well plate with 100 μL (20000 cells/well) per well. It was incubated in 5% CO2 incubator (relative humidity 100%) at 37° C. for 24 h.
The above modified plasmids (0.48 μg) were diluted with Opti-MEM culture medium (25 μL, Gibco, Cat #11058021), and blew gently to mix homogenously. […]
Compound 1 and vortioxetine were respectively diluted to 1 mM with Opti-MEM culture medium, then diluted 10 times per 4 times gradient, and then added to the transfected cell wells by 20 μL/well (the corresponding concentrations were 100 μM-0.0004 μM, in total of 10 concentration points, the concentration ratio between each concentration point was 4, each concentration included 3 parallel wells). […] 50 μL of lysed cell fluid was taken, and 200 μL of scintillation solution was added thereto, and reading was conducted with MicroBeta2. […]

[2] = test system: 5-HTP induced head-twitch model; experiment: Head-twitch test in mice (5-HTP induced); assay type: in vivo, KM mice; conditions: 20 mg/kg intraperitoneal injection, then 200 mg/kg 5-HTP, within 0-10 min
Description: KM mice (male, 18-22 g, Experimental Animal Center, Chongqing Medical University) were randomly divided into 6 mice per group. According to the below table, the animals in each experiment group were administrated a solution of corresponding agent, and then 200 mg/kg 5-HTP (5-hydroxytryptophan). The effects of vortioxetine and Compound 3 on the frequency of head-twitch of mice within 0-10 min were determinate (see [i]Brit. J. Pharmacol. (1963), 20, 106-120 for detailed experiment methods).

[3] = Test of brain concentration and plasma concentration; assay type: in vivo, KM mice; conditions: male, KM, mouse, Compound 1 23.6 mg/kg
Description: KM mice (male, 18-22 g, Experimental Animal Center, Chongqing Medical University) were randomly divided into groups with 6 mice per group. In accordance with the table below, the animals in each group were respectively injected intravenously with equal moles of vortioxetine (20 mg/kg) and Compound 1 (23.6 mg/kg). Samples of blood and brain tissue of the mouse were taken at 1 and 2 hours after injection. The concentrations of vortioxetine and Compound 1 in blood plasma and brain tissue were respectively measured, and the ratios (concentration in brain tissue/concentration in blood plasma) were calculated.

[4] = Test of blood drug level in rats; assay type: in vivo, SD rats; conditions: for Blood drug level: intragastric, Vortioxetine 20 mg/kg (rats A1-A4), Compound 3 22.8 mg/kg (rats B1-B4), individual rats, in ng/mL (unit assumed)
Description: SD rats (male, 180-220 g, Experimental Animal Center, Chongqing Medical University) were randomly divided into groups with 4 rats per group. Food was prohibited, but not water, for 8 hours before administration.
Blood samples were collected from the orbital venous plexus at 0, 1, 2, 4, 6, 8 h after administration, wherein at least 0.3 ml was taken at each time point, and heparin was used for anticoagulant. The obtained whole blood (200 μl) was added to acetonitrile (800 LA, vortexed and shaken for 1 min, and then centrifuged for 10 min at 12000 rpm. The supernatant was taken and kept at −20° C., and the blood drug level of the supernatant was determined by LC/MS/MS. The data for each animal in groups are as follows: […]

KM mice = experiment: Forced swimming test in mice; assay type: in vivo; conditions: 20 mg/kg oral gastric lavage, 1 hour after administration, last 4 min of 6 min swim
Description: KM mice (male, 38-42 g, Experimental Animal Center, Chongqing Medical University) were randomly divided into groups with 6 mice per group. After fasted for 4 h, the mice were placed in a glass cylinder with a diameter of 18 cm, height of 40 cm, water depth of 15 cm (water temperature 25° C.) to swim for 6 min, then dried with a warm air blower. The animals in each experiment group were administrated a solution of corresponding agent (Oral administration of gastric lavage, 20 mg/kg) according to the table below. After 1 hour of administration, the mice were placed in a glass cylinder with a diameter of 18 cm, height of 40 cm, water depth of 15 cm (water temperature 25° C.) to swim for 6 min. The swimming of the mice was recorded within 6 min by a camera system, and the data were automatically collected and analyzed by Noldus software. The quiescent time during swimming was recorded and counted within the last 4 min (for the experiment method, see THE JOURNAL OF PHARMACOLOGY AND EXPERIMENTAL THERAPEUTICS (2012), Vol. 340, No. 3: 666-675).

[5] = oral administration; cited from earlier work
[6] = 2 h after oral 20 mg/kg, male Listar Hooded rats; cited from earlier work
[7] = human, cited from earlier work

T1 sequence (P31645 whole entry): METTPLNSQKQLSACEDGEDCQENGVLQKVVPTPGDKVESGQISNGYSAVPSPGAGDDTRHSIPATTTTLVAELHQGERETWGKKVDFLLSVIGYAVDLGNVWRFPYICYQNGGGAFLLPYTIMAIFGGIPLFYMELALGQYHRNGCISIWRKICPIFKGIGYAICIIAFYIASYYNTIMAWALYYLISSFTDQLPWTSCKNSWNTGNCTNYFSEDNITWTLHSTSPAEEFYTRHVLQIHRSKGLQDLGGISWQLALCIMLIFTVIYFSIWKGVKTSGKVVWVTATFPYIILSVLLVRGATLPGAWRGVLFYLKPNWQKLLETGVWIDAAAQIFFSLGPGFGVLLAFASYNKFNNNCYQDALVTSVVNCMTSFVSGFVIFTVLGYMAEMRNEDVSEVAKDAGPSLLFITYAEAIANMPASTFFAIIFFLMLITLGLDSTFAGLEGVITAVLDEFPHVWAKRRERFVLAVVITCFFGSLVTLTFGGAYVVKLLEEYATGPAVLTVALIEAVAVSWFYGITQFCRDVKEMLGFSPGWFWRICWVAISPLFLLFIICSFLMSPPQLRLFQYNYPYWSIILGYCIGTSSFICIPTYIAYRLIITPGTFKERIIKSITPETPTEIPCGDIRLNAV

SMILES: Cc1ccc(Sc2ccccc2N2CCNCC2)c(C)c1 [Vortioxetine]
- logP at 3 h ([1]; n-octyl alcohol / pH 7.4 phosphate buffer, pH 7.4 phosphate buffer / n-octyl alcohol, 3 hours at 37° C., read-out: logP (lipid-water partition coefficient)): 2.1
- IC50 (SLC6A4): 267 nM
- Number of head-twitch [2]: 56 ± 10
- Kp at 1 h ([3]; brain/plasma, 1 hour after intravenous injection, vortioxetine 20 mg/kg, read-out: Concentration ratio in brain tissue and plasma): 60.2 ± 8.64
- Kp at 2 h ([3]; brain/plasma, 2 hours after intravenous injection, vortioxetine 20 mg/kg, read-out: Concentration ratio in brain tissue and plasma): 44.6 ± 13.1
- concentration at 1 h ([3]; brain, 1 hour after intravenous injection, equal moles: vortioxetine 20 mg/kg, read-out: Concentration in brain tissue): 15400 ± 1400 ng/g
- concentration at 2 h ([3]; brain, 2 hours after intravenous injection, vortioxetine 20 mg/kg, read-out: Concentration in brain tissue): 7490 ± 560 ng/g
- concentration at 1 h ([3]; plasma, 1 hour after intravenous injection, vortioxetine 20 mg/kg, read-out: Blood drug level): 261 ± 53.5 ng/mL
- concentration at 2 h ([3]; plasma, 2 hours after intravenous injection, vortioxetine 20 mg/kg, read-out: Blood drug level): 167 ± 49.5 ng/mL
- Blood drug level ([4]; 0 h): 0
- Blood drug level ([4]; 1 h): 48.59 and 163.07 and 183.96 and 256.56
- Blood drug level ([4]; 2 h): 85.335 and 149.685 and 164.88 and 195.125
- Blood drug level ([4]; 4 h): 34.54 and 90.305 and 94.53 and 164.845
- Blood drug level ([4]; 6 h): 17.095 and 47.74 and 40.91 and 72.6
- Blood drug level ([4]; 8 h): 7.13 and 6.76 and 23.35 and 26.315
- Quiescent time (KM mice): 136 ± 37 s
- bioavailability [5]: about 75%
- distribution concentration in brain [6]: 2.77 µg/g
- distribution concentration in kidney [6]: 10.3 µg/g
- distribution concentration in liver [6]: 22.3 µg/g
- distribution concentration in lung [6]: 15.5 µg/g
- parent drug share in plasma ([7]; 4 hours after oral 14C-vortioxetine free base 50 mg): about 8%

SMILES: Cc1cc(C(F)(F)F)ccc1Sc1ccccc1N1CCNCC1 [Compound 1, 1-[2-(2-methyl-4-trifluoromethylphenylthio)phenyl]piperazine]
- IC50 (SLC6A4): 231 nM
- melting point: 206 to 208 °C

SMILES: Cc1cc(C(=O)O)ccc1Sc1ccccc1N1CCNCC1 [LUAA34443]
- share of LUAA34443 and LUAA34443 glucuronide together ([7]; oral 14C-vortioxetine free base 50 mg, one combined value for both metabolites): 44%

SMILES: Br.Cc1cc(C(F)(F)F)ccc1Sc1ccccc1N1CCNCC1 [Compound 3, 1-[2-(2-methyl-4-trifluoromethylphenylthio)phenyl] piperazine hydrobromide]
- logP at 3 h ([1]; pH 7.4): 2.7
- Number of head-twitch [2]: 45.0 ± 29.0
- Blood drug level ([4]; 0 h, hydrobromide): 0.815 and 2.195 and 1.62 and 0.975
- Blood drug level ([4]; 1 h, hydrobromide): 458.925 and 276.675 and 351.38 and 412.775
- Blood drug level ([4]; 2 h, hydrobromide): 587.71 and 237.72 and 441.03 and 648.63
- Blood drug level ([4]; 4 h, hydrobromide): 726.37 and 181.565 and 334.54 and 297.135
- Blood drug level ([4]; 6 h, hydrobromide): 421.06 and 139.79 and 230.075 and 159.715
- Blood drug level ([4]; 8 h, hydrobromide): 386.805 and 37.895 and 109.47 and 78.5
- blood drug levels compared with equal moles of vortioxetine ([4]; oral, all time points): higher
- Quiescent time (KM mice): 107 ± 31 s
- melting point: 170 to 172 °C
